# Laboratory results as given in patent US20210107865A1, “ALIPHATIC AMINE AND ITS PREPARATION METHOD AND USE” (COVESTRO D[…], priority 2017, published 2021).
# Assay: Solubility of lysine in amine compounds and solvents
# Assay type: physicochemical
# Details: at 100° C. under normal pressure
structure (smiles),measurement,setting,value
"NCCCC[C@H](N)C(=O)O [lysine, L-lysine]","solubility of lysine in 1,5-pentanediamine","in 1,5-pentanediamine","solubility of lysine in 1,5-pentanediamine is 33 g/100 g,"
same,"solubility of lysine in 1,6-hexanediamine","in 1,6-hexanediamine","is 4.6 g/100 g, measured at 100 °C under normal pressure."
same,solubility of lysine in cyclohexanol,in cyclohexanol,Ltd. The solubility of lysine in cyclohexanol is 0.01 g/100 g/100 g
same,solubility of lysine in ethylene glycol,in ethylene glycol,"The solubility of lysine in ethylene glycol is 20 g/100 g,"
same,solubility of lysine in isophoronediamine,in isophoronediamine,"is 5.2 g/100 g, measured at 100 °C under normal pressure."
